Measurements published in ChEMBL document CHEMBL5032529, “Synthesis and evaluation of tetrahydroisoquinoline derivatives against Trypanosoma brucei rhodesiense” (Eur J Med Chem, 2021).

Tests used:
[1] = system: Trypanosoma brucei rhodesiense; test: Antitrypanosomal activity against Trypanosoma brucei rhodesiense STIB900 assessed as parasite growth inhibition; format: functional, organism-based
[2] = system: Trypanosoma brucei rhodesiense; test: Antitrypanosomal activity against Trypanosoma brucei rhodesiense STIB900 assessed as parasite growth inhibition measured after 72 hrs by alamar blue dye based spectrofluorimetric analysis; format: functional, organism-based; conditions: STIB900, 72 h
[3] = system: Vero; test: Cytotoxicity against African green monkey Vero cells assessed as reduction in cell viability measured after 72 hrs by SRB assay; format: cell-based; conditions: Chlorocebus sabaeus
[4] = Selectivity index, ratio of IC50 for cytotoxicity against African green monkey Vero cells to IC50 for antitrypanosomal activity against Trypanosoma brucei rhodesiense STI B900; format: toxicity, cell-based; conditions: read-out: Ratio IC50
[5] = system: Trypanosoma brucei; test: Antitrypanosomal activity against bloodstream form of Trypanosoma brucei assessed as parasite growth inhibition incubated for 3 days by resazurin staining based assay; format: functional, organism-based; conditions: 72 h
[6] = Inhibition of Trypanosoma Trypanothione reductase in presence of NADPH by DTNB based colorimetric assay

SMILES | IC50 [1] | IC50 [2] | EC50 [5] | IC50 [6] | IC50 [3] | selectivity ratio [4]
C=C1C[C@H]2OC(=O)C(=C)[C@@H]2[C@H](OC(=O)/C(C)=C/C)C[C@@]2(C)OC1=CC2=O | 0.015 µM | – | – | – | – | –
OC1CNCc2c(OCc3cccc(Br)c3)cccc21 (stereo unspecified) | – | 2.6 µM | – | – | 73.5 µM | 28.3
Clc1ccc2c(c1)N(CCCN1CCN(CCCc3ccccc3)CC1)c1ccccc1S2 | – | – | 0.775 µM | 0.75 µM | – | –
OC1CNCc2c(OCc3ccc(Br)cc3)cccc21 (stereo unspecified) | – | 2.54 µM | – | – | > 50 µM | > 19.7
CN1Cc2ccc(OCc3ccc(-c4ccccc4)cc3)cc2[C@@H](OC(=O)c2ccccc2)C1 | – | 16.4 µM | – | – | 10.5 µM | 0.6
OC1CNCc2c(OCCC3CCCCC3)cccc21 (stereo unspecified) | – | 2.01 µM | – | – | 25.3 µM | 12.6

The remaining molecules from weak to strong by IC50 [2], led by results:

IC50 [1] | IC50 [2] | EC50 [5] | IC50 [6] | SMILES | IC50 [3] | selectivity ratio [4]
– | 16.5 µM | – | – | Cc1ccccc1COc1cccc2c1CNCC2O (stereo unspecified) | > 100 µM | > 6.1
– | 16.3 µM | – | – | CN1Cc2ccc(OCc3ccc(-c4ccccc4)cc3)cc2[C@H](OC(=O)c2ccccc2)C1 | 12.9 µM | 0.8
